Reference: US20190161516A1, “PROTEASOME INHIBITORS” (University of Kentucky Research Foundation, priority 2017, published 2019)

Legend:
[1] = tested on: Chymotrypsin-like activity (β5/β5i); experiment: Proteasome inhibitory activity, subunit-specific cell lysate IC50, chymotrypsin-like activity; format: biochemical
[2] = molecular target: T1, X/β5 (Homo sapiens, UniProt P20618+P28074); experiment: Proteasome activity assay, purified 20S proteasome, Ac-WLA-AMC; format: biochemical
T1 construct: purchased R&D Systems
Description: Purified 20S human proteasomes (CP and IP, R&D Systems) were used to assess the in vitro inhibition of proteasome catalytic activity by LMP2 inhibitors. In our 96-well format assays involving a 100 μL total volume, 20S proteasomes (0.5 μg/mL) were incubated with inhibitors or reference compounds (e.g., carfilzomib) in assay buffer (20 mM Tris-HCl, 0.5 mM EDTA, 0.035% SDS) at room temperature for 30 min. Reactions were initiated by the addition of fluorogenic substrates containing the AMC (7-amino-4-methylcoumarin) group. Specifically, the following substrates were used: Suc-LLVY-AMC (CT-L activity, 100 μM), Ac-PAL-AMC (LMP2, 100 μM), Ac-WLA-AMC (β5, 20 μM), Ac-nLPnLD-AMC (β1,100 μM), Ac-RLR-AMC (β2/2i, 20 μM), and Ac-ANW-AMC (β5i, 100 μM). The fluorescence of liberated AMC was measured over a period of 90 min at 360 and 460 nm on a SpectraMax M5 fluorescence plate reader (Molecular Devices). For the proteasome activity of brain tissues isolated from AD mice, tissues were homogenized in RIPA buffer (50 mM Tris Cl, pH 7.4, 150 mM NaCl, 5 mM EDTA, 1% Nonidet P-40, 1% sodium deoxycholate, 0.1% SDS, 1% aprotinin, 50 mM NaF) and sonicated. Samples were centrifuged for 40 min at 14,000×g (4° C.). Protein concentration was determined using the Bradford Assay according to the manufacturer's protocol. […] Fluorescence was recorded for 90 min using a Synergy-HT (Bio Tek) plate reader.

[3] = molecular target: T2, LMP7/β5i (Homo sapiens, UniProt P20618+P28062); experiment: Proteasome activity assay, purified 20S proteasome, Ac-ANW-AMC; format: biochemical
T2 construct: purchased R&D Systems
Description: (§1) Purified 20S human proteasomes (CP and IP, R&D Systems) were used to assess the in vitro inhibition of proteasome catalytic activity by LMP2 inhibitors. […] Reactions were initiated by the addition of fluorogenic substrates containing the AMC (7-amino-4-methylcoumarin) group. Specifically, the following substrates were used: Suc-LLVY-AMC (CT-L activity, 100 μM), Ac-PAL-AMC (LMP2, 100 μM), Ac-WLA-AMC (β5, 20 μM), Ac-nLPnLD-AMC (β1,100 μM), Ac-RLR-AMC (β2/2i, 20 μM), and Ac-ANW-AMC (β5i, 100 μM). The fluorescence of liberated AMC was measured over a period of 90 min at 360 and 460 nm on a SpectraMax M5 fluorescence plate reader (Molecular Devices). For the proteasome activity of brain tissues isolated from AD mice, tissues were homogenized in RIPA buffer (50 mM Tris Cl, pH 7.4, 150 mM NaCl, 5 mM EDTA, 1% Nonidet P-40, 1% sodium deoxycholate, 0.1% SDS, 1% aprotinin, 50 mM NaF) and sonicated. Samples were centrifuged for 40 min at 14,000×g (4° C.). Protein concentration was determined using the Bradford Assay according to the manufacturer's protocol. Finally, samples were loaded onto a 96-well plate followed by the addition of the substrate (Ac-PAL-AMC) at 37° C. Fluorescence was recorded for 90 min using a Synergy-HT (Bio Tek) plate reader.

[4] = tested on: APPsw transgenic mouse (Tg2576) and LPS-induced mice (ICR strain); experiment: Morris water maze test in AD mouse models; format: in vivo; details: FIG. 12A-12D
Description: These two compounds were used to investigate the impacts of LMP2 inhibition on cognitive deficits in two animal models of human Alzheimer's disease (AD). In these AD models, AD develops by Aβ deposition (APPsw transgenic mouse) or lipopolysaccharide (LPS)-induced neuroinflammation. For the APPsw transgenic model, also known as Tg2576, 10-month old APPsw mice were treated i.p. with LMP2 inhibitors twice a week for 3 weeks. […] Once treatments were finished, Morris water maze test was performed. All mice were trained for three times a day for 5 days before the test. The escape latency and distance traveled were recorded on a daily-basis over a 5-day period. […] This supports that the efficacy of LMP2 inhibitors is mediated through LMP2 inhibition. One day after the completion of Morris water maze test, the ability of mouse to maintain memory was evaluated by probe trials. […] Sequentially, a step-through latency test was performed a day after the probe trial. […]
The learning trials were conducted over 5 days, with 4 trials per day, with three randomized starting points. […] Swimming pattern of each mouse was monitored and recorded by a camera mounted above the center of the pool, and the escape latency, escape distance and swimming speed were assessed by the SMART-LD program (Panlab, Spain). […]

[5] = molecular target: T3, LMP2/β1i (Homo sapiens, UniProt P28065+P40306); experiment: Proteasome activity assay, purified 20S proteasome, Ac-PAL-AMC; format: biochemical; parameters: purchased R&D Systems
Description: as §1

[6] = molecular target: T3, LMP2/β1i; experiment: Proteasome inhibitory activity, subunit-specific cell lysate IC50, LMP2; format: biochemical; parameters: Subunit-Specific Cell lysate IC50 (μM); endogenous in cells; details: read-out: Subunit-Specific Cell lysate IC50, LMP2 (β1i)

SMILES: CC(C)C[C@H](NC(=O)[C@H](Cc1ccccc1)NC(=O)[C@@H]1CCCN1C(=O)CNC(=O)c1cnccn1)C(=O)[C@@]1(C)CO1 [Analogue 16]
- IC50 [1]: > 10 µM
- IC50 [2]: > 10 µM
- IC50 [3]: > 10 µM
- cognitive deficits in the APPsw mice [4]: ameliorates cognitive deficits
- IC50 [5]: 0.07 µM
- IC50 [6]: 0.08 µM
